According to BindingDB's records for doi:10.1021/jm031016d (University of Athens, 2004):
pIC50: −log10 of the molar value.

Key:
[1] = biological target: Cyclin-dependent kinase 1/G2/mitotic-specific cyclin-B (Marthasterias glacialis, UniProt P15206+Q9DGD3); test: Kinase Inhibition Assay; details: 30 °C
[2] = biological target: T1, Cyclin-dependent kinase 5 activator 1 [99-307] (Homo sapiens, UniProt Q00535); test: Kinase Inhibition Assay; details: 30 °C
T1 construct: 99-307

[3] = biological target: Glycogen synthase kinase-3 alpha/beta (Sus scrofa); test: Kinase activities were assayed in buffers containing substrate, enzyme, and inhibitor at 30 °C in the presence of 15 uM ATP/ [gamma-32P] ATP. 32P incorporation was measured with a scintillation counter. The IC50 is the inhibitor concentration, which inhibits 50% of kinase activity that catalyzes the transfer of the terminal phosphate from 32P l

Chain of Cyclin-dependent kinase 1/G2/mitotic-specific cyclin-B (Q9DGD3 whole entry): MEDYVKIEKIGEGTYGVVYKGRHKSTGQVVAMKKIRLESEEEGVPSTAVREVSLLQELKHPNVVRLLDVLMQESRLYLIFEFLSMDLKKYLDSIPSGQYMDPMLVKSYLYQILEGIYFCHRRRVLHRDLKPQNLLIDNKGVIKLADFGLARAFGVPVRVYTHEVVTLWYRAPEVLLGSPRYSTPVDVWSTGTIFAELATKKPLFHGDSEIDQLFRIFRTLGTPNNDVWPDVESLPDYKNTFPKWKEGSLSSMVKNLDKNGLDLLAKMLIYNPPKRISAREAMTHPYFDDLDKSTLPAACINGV
Chain of Cyclin-dependent kinase 1/G2/mitotic-specific cyclin-B (P15206 whole entry): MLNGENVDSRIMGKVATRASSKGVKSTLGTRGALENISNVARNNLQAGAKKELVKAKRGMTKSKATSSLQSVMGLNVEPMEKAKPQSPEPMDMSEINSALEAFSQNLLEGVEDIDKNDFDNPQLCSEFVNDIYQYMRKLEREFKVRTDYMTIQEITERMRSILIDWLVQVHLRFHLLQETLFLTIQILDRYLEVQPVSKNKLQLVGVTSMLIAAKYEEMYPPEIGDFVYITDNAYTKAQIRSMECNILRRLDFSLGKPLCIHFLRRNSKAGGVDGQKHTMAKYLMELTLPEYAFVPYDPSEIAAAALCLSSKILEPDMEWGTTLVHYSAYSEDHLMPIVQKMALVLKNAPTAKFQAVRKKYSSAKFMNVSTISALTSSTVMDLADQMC
T1 sequence (Q15078 99-307): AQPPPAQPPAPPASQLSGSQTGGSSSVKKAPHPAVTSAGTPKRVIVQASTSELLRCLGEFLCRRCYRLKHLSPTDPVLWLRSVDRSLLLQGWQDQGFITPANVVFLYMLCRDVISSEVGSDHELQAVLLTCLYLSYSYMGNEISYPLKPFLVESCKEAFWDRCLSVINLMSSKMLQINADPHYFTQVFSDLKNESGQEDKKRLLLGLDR
T1 sequence (Q00535 whole entry): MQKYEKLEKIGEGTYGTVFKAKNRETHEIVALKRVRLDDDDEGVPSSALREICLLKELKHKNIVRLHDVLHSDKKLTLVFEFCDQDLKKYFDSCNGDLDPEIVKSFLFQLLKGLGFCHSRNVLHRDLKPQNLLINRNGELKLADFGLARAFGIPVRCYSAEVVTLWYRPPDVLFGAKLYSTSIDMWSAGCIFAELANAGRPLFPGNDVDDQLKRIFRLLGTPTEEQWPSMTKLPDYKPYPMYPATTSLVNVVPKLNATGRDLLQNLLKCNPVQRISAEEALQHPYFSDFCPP

SMILES	pIC50 [1]	pIC50 [2]	pIC50 [3]	pIC50 ([1]; pH 7.2)
CN1C(=O)/C(=C2\Nc3ccccc3C2=O)c2ccccc21 [1-methyl-3-[(2Z)-3-oxo-2,3-dihydro-1H-indol-2-ylidene]-2,3-dihydro-1H-indol-2-one]	< 4.00	< 4.00	< 4.00	–
CN1C(=O)C(c2[nH]c3ccccc3c2N=O)c2ccccc21 (stereo not drawn) [3-[(2Z,3E)-3-(hydroxyimino)-2,3-dihydro-1H-indol-2-ylidene]-1-methyl-2,3-dihydro-1H-indol-2-one]	4.14	< 4.00	< 4.00	–
CO/N=C1/C(=C2/C(=O)Nc3ccccc32)Nc2ccccc21 [3-[(2Z,3E)-3-(methoxyimino)-2,3-dihydro-1H-indol-2-ylidene]-2,3-dihydro-1H-indol-2-one]	–	6.40	–	–
O=C1Nc2cccc(Cl)c2/C1=C1/Nc2ccccc2C1=O [4-chloro-3-[(2Z)-3-oxo-2,3-dihydro-1H-indol-2-ylidene]-2,3-dihydro-1H-indol-2-one]	5.00	5.00	< 4.00	–
O=C1Nc2cc(Br)c([N+](=O)[O-])cc2[C+]1c1[nH]c2ccccc2c1[O-] [6-Bromo-5-nitroindirubin]	< 4.00	< 4.00	7.00	–
O=C1Nc2cc(Br)ccc2/C1=C1/Nc2ccccc2C1=O [6-bromo-3-[(2Z)-3-oxo-2,3-dihydro-1H-indol-2-ylidene]-2,3-dihydro-1H-indol-2-one]	–	4.28	–	–
Cc1cc2c(cc1Br)NC(=O)C2c1[nH]c2ccccc2c1N=O (stereo not drawn) [6-bromo-3-[(2Z,3E)-3-(hydroxyimino)-2,3-dihydro-1H-indol-2-ylidene]-5-methyl-2,3-dihydro-1H-indol-2-one]	–	6.89	–	–
O=Nc1c(C2C(=O)Nc3cc(Br)c([N+](=O)[O-])cc32)[nH]c2ccccc12 (stereo not drawn) [6-bromo-3-[(2Z,3E)-3-(hydroxyimino)-2,3-dihydro-1H-indol-2-ylidene]-5-nitro-2,3-dihydro-1H-indol-2-one]	–	6.82	–	–
O=Nc1c(C2C(=O)Nc3cc(Br)ccc32)[nH]c2cc(Br)ccc12 (stereo not drawn) [6-bromo-3-[(2Z,3E)-6-bromo-3-(hydroxyimino)-2,3-dihydro-1H-indol-2-ylidene]-2,3-dihydro-1H-indol-2-one]	–	5.89	6.92	4.77
Cc1cc2c(cc1Br)NC(=O)/C2=C1\Nc2ccccc2C1=O [6-bromo-5-methylindirubin]	4.52	4.22	7.60	–
O=C1Nc2cc(Cl)ccc2/C1=C1/Nc2ccccc2C1=O [6-chloro-3-[(2Z)-3-oxo-2,3-dihydro-1H-indol-2-ylidene]-2,3-dihydro-1H-indol-2-one]	–	< 4.00	6.85	< 4.00
O=Nc1c(C2C(=O)Nc3cc(Cl)ccc32)[nH]c2ccccc12 (stereo not drawn) [6-chloro-3-[(2Z,3E)-3-(hydroxyimino)-2,3-dihydro-1H-indol-2-ylidene]-2,3-dihydro-1H-indol-2-one]	–	7.00	7.70	6.19
CC(=O)ON=C1C(=C2C(=O)Nc3cc(Cl)ccc32)Nc2ccccc21 [6-chloroindirubin-3-acetoxime]	–	6.70	7.77	4.52
O=Nc1c(C2C(=O)Nc3cc(F)ccc32)[nH]c2ccccc12 (stereo not drawn) [6-fluoro-3-[(2Z,3E)-3-(hydroxyimino)-2,3-dihydro-1H-indol-2-ylidene]-2,3-dihydro-1H-indol-2-one]	6.49	6.82	6.89	–
O=C1Nc2cc(F)ccc2/C1=C1/Nc2ccccc2C1=O [6-fluoroindirubin]	–	6.00	–	–
O=Nc1c(C2C(=O)Nc3cc(I)ccc32)[nH]c2ccccc12 (stereo not drawn) [6-iodoindirubin-3-oxime]	–	6.52	–	–
O=C1Nc2cc(I)ccc2/C1=C1/Nc2ccccc2C1=O [6-iodoindirubin]	–	5.28	7.26	5.80
C=Cc1ccc2c(c1)NC(=O)C2c1[nH]c2ccccc2c1N=O (stereo not drawn) [6-vinylindirubin-3-oxime]	5.92	6.38	7.22	–
C=Cc1ccc2c(c1)NC(=O)/C2=C1\Nc2ccccc2C1=O [6-vinylindirubin]	5.38	5.62	6.62	–
O=C1Nc2cc(Cl)c(Cl)cc2/C1=C1/Nc2ccccc2C1=O [(2 Z)-5,6-Dichloroindirubin]	4.35	4.22	7.52	–
O=C1Nc2cc(Br)ccc2/C1=C1/Nc2cc(Br)ccc2C1=O [(2 Z)-6,6 -Dibromoindirubin]	–	< 4.00	5.35	< 4.00
CN1C(=O)/C(=C2\Nc3ccccc3C2=O)c2ccc(Br)cc21 [(2 Z)-6-Bromo-1-methylindirubin]	–	< 4.00	< 4.00	< 4.00
CN1C(=O)C(c2[nH]c3ccccc3c2N=O)c2ccc(Br)cc21 (stereo not drawn) [(2 Z,3 E)-6-Bromo-1-methylindirubin-3-oxime]	–	< 4.00	< 4.00	4.04
CO/N=C1/C(=C2/C(=O)Nc3cc(Br)ccc32)Nc2ccccc21 [(2 Z,3 E)-6-Bromoindirubin-3-methoxime]	–	5.66	7.52	5.43
CC(=O)ON=C1C(=C2C(=O)Nc3cc(F)ccc32)Nc2ccccc21 [(2 Z,3 E)-6-Fluoroindirubin-3-acetoxime]	–	6.52	–	–
CC(=O)ON=C1C(=C2C(=O)Nc3cc(I)ccc32)Nc2ccccc21 [(2 Z,3 E)-6-Iodoindirubin-3-acetoxime]	5.66	5.89	7.89	–
CC(=O)ON=C1C(=C2C(=O)Nc3ccccc32)Nc2ccccc21 [[(3E)-2-[(3Z)-2-oxo-2,3-dihydro-1H-indol-3-ylidene]-2,3-dihydro-1H-indol-3-ylidene]amino acetate]	–	6.15	–	–
C=Cc1ccc2c(c1)NC(=O)C2=C1Nc2ccccc2C1=NOC(C)=O [[(3E)-2-[(3Z)-6-ethenyl-2-oxo-2,3-dihydro-1H-indol-3-ylidene]-2,3-dihydro-1H-indol-3-ylidene]amino acetate]	5.80	6.40	7.19	–
